# Patent US4868158A, “Method for the production of a macromolecular carrier loaded with a biologically active substance” (Oncholab AB, priority 1985, dated 1989)
# Tested on: WEHI-3B cells, a murine monomyelocytic cell line
# Conditions: 1.0 million WEHI-3B cells i.p.; 1.9 mg AD-32/kg/day i.p. for five days
# Description: Balb/C mice were injected intraperitonally (i.p.) with 1.0 million WEHI-3B cells, a murine monomyelocytic cell line. […] The AD-32 was administered i.p. dissolved in a mixture of ethanol and castor oil.
smiles,measurement,value
"CCCCC(=O)OCC(=O)C1(O)Cc2c(O)c3c(c(O)c2C(OC2CC(NC(=O)C(F)(F)F)C(O)C(C)O2)C1)C(=O)c1c(OC)cccc1C3=O (stereo not shown) [AD-32, N-trifluoroacetyladriamycin-14-valerate]","ILS, Increased Life Span",2%
